Common to all, as to assay type: functional
Assay [1] in a line: Antioxidant activity assessed as inhibition of CuSO4-induced human LDL oxidation at 10 uM at 2 hr by thibarbuteric acid assay.
Assay [2] can be described thus: Antioxidant activity assessed as inhibition of CuSO4-induced human LDL oxidation at 25 uM at 6 hr by thibarbuteric acid assay.
Assay [3] can be described thus: Antioxidant activity assessed as inhibition of CuSO4-induced human LDL oxidation at 25 uM at 4 hr by thibarbuteric acid assay.
Assay [4] is described as follows: Antioxidant activity assessed as inhibition of CuSO4-induced human LDL oxidation at 10 uM at 4 hr by thibarbuteric acid assay.
Assay [5] can be described thus: Antioxidant activity assessed as inhibition of linoleic acid oxidation at 10 uM up to 180 min by beta-carotene bleaching assay.
Assay [6] in a line: Antioxidant activity assessed as inhibition of CuSO4-induced human LDL oxidation at 10 uM at 6 hr by thibarbuteric acid assay.
Assay [7] is described as follows: Antioxidant activity assessed as inhibition of linoleic acid oxidation at 25 uM up to 180 min by beta-carotene bleaching assay.
Assay [8] can be described thus: Antioxidant activity assessed as inhibition of CuSO4-induced human LDL oxidation at 25 uM at 2 hr by thibarbuteric acid assay.

Molecules are shown by their SMILES.

Consider 13 compounds from ChEMBL document CHEMBL3045243, “Synthesis of novel 3-chloro-1-(5H-dibenz[b,f]azepine-5yl)propan-1-one derivatives with antioxidant activity” (Med Chem Res, 2011).

As a reminder, the inhibition is how much of the control response was suppressed.

Turning to `O=C(O)[C@@H]1C(O)CCN1CCC(=O)N1c2ccccc2C=Cc2ccccc21` (some centres undefined), the inhibition in assay [1] was 69.7%; in assay [2], 77.1%; in assay [3], 75.5%; in assay [4], 73.5%; in assay [5], 85.4%; in assay [6], 75.8%. Besides, the inhibition in assay [7] was found to be 88.4%; in assay [8] it was 73.7%.

Consider `O=C(O)CNCCC(=O)N1c2ccccc2C=Cc2ccccc21`, for which the inhibition in assay [1] was 6.71%; in assay [2], 10.3%; in assay [3], 7.92%; in assay [4], 7.95%; in assay [5], 2.96%; in assay [6], 10.2%. The figures for the inhibition in assay [7] and in assay [8] were 8.8% and 8.24%, respectively.

On to `O=C(O)[C@H](Cc1ccccc1)NCCC(=O)N1c2ccccc2C=Cc2ccccc21`, for which the inhibition in assay [1] came to 9.98%; in assay [2], 18.7%; in assay [3] it was 16.4%; in assay [4], 11.2%; in assay [5], 5.39%; in assay [6], 13.5%. Further, the inhibition in assay [7] is 8.3%; in assay [8] it was 13.1%.

As to `O=C(O)[C@H](Cc1c[nH]cn1)NCCC(=O)N1c2ccccc2C=Cc2ccccc21`, the inhibition in assay [1] came to 56.3%; in assay [2], 72.7%; in assay [3] it was 70.1%; in assay [4] it was 65.7%; in assay [5], 85%; in assay [6], 68.5%. For the same compound, the values for the inhibition in assay [7] and in assay [8] were 86.8% and 68.3%, respectively.

In the case of `C[C@H](NCCC(=O)N1c2ccccc2C=Cc2ccccc21)C(=O)O`, the inhibition turned out to be 8.92% in assay [1]; 12.1% in assay [2]; 10.1% in assay [3]; 9.75% in assay [4]; 10% in assay [5]; 11% in assay [6]. Moreover, the results for the inhibition in assay [7] and in assay [8] were 15.4% and 9.14%, respectively.

Consider `CSCC[C@H](NCCC(=O)N1c2ccccc2C=Cc2ccccc21)C(=O)O`, for which the inhibition in assay [1] amounted to 54.6%; in assay [2], 61.6%; in assay [3], 59.8%; in assay [4], 57.9%; in assay [5] it was 52.6%; in assay [6], 59.7%. The inhibition was 67.3% in assay [7] and 55% in assay [8].

As for `O=C(O)[C@H](Cc1ccc(O)cc1)NCCC(=O)N1c2ccccc2C=Cc2ccccc21`, the inhibition in assay [1] was 70.5%; in assay [2] it was 83.5%; in assay [3] it was 79.6%; in assay [4], 75.5%; in assay [5], 86.8%; in assay [6] it was 78.7%. Also, the results for the inhibition in assay [7] and in assay [8] were 89.1% and 73.6%, respectively.

Consider `O=C(O)[C@H](CS)NCCC(=O)N1c2ccccc2C=Cc2ccccc21`, for which the inhibition worked out at 67.3% in assay [1]; 75.8% in assay [2]; 73.4% in assay [3]; 69.8% in assay [4]; 82.2% in assay [5]; 72.5% in assay [6]. Also, the inhibition was 84.4% in assay [7] and 70.5% in assay [8].

Take `O=C1O[C@H]([C@@H](O)CO)C(O)=C1O`: the inhibition in assay [1] stood at 74.3%; in assay [2] it was 92.2%; in assay [3] it was 85.2%; in assay [4], 81.3%; in assay [5] it was 87.2%; in assay [6] it was 84.4%. The figures for the inhibition in assay [7] and in assay [8] were 90.4% and 79.2%, respectively.

Regarding `O=C(CCCl)N1c2ccccc2C=Cc2ccccc21`, the inhibition in assay [1] is 5.34%; in assay [2] it was 12.4%; in assay [3], 9.77%; in assay [4] it was 6.87%; in assay [5] it was 2.89%; in assay [6], 8.87%. The inhibition in assay [7] is 4.24%; in assay [8] it was 7.43%.

As to `O=C(O)[C@@H]1CCCN1CCC(=O)N1c2ccccc2C=Cc2ccccc21`, the inhibition was determined as 11.9% in assay [1]; 17.4% in assay [2]; 14.1% in assay [3]; 13.6% in assay [4]; 4.22% in assay [5]; 15.4% in assay [6]. In addition, the inhibition in assay [7] was found to be 6.15%; in assay [8], 13.7%.

Turning to `O=C(O)[C@H](Cc1c[nH]c2ccccc12)NCCC(=O)N1c2ccccc2C=Cc2ccccc21`, the inhibition in assay [1] was 67.9%; in assay [2], 75.2%; in assay [3], 73.2%; in assay [4] it was 70.8%; in assay [5], 83.6%; in assay [6], 73.5%. Besides, the inhibition was 85.9% in assay [7] and 71.2% in assay [8].

With `C[C@@H](O)[C@H](NCCC(=O)N1c2ccccc2C=Cc2ccccc21)C(=O)O`, the inhibition in assay [1] is 53.5%; in assay [2] it was 61.6%; in assay [3], 59.6%; in assay [4] it was 55.5%; in assay [5], 53.8%; in assay [6], 57%. Also, the inhibition in assay [7] came out at 76%; in assay [8] it was 56.2%.
